Results published in paper PMC10349806 (Nature Communications, 2023).
Several values for one entry are separate records, joined by “and”; a condition that tells them apart may be missing. Identical values can stand only once.

Tests used:
PfCRT variant F287A = molecular target: T1, PfCRT variant F287A (Plasmodium falciparum, UniProt Q9N623, A220S/F287A/I356T/K76T/M74I/N326S/N75E/Q271E/R371I); test: CQ uptake assay, oocytes expressing F287A; type: cell-based
T1 sequence (Q9N623 1-424 M74I/N75E/K76T/A220S/Q271E/F287A/N326S/I356T/R371I): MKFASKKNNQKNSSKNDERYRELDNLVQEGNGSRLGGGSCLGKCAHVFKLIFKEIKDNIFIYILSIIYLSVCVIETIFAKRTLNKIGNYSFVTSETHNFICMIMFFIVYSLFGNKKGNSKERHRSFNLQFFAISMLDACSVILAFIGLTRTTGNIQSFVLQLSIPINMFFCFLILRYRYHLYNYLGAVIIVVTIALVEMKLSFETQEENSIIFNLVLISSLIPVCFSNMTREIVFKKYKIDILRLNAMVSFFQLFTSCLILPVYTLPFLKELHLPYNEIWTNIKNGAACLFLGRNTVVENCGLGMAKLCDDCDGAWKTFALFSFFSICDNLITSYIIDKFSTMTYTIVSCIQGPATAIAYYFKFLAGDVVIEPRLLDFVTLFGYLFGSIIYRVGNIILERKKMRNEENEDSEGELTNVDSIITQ
Experimental: (§1) Site-directed mutagenesis of PfCRT^Dd2 was performed as described using the megaprimer method with overlap extension[21],[54]. The primer pairs used are listed in Supplementary Table 6. Please note that a codon-optimized and oocyte-adapted version of PfCRT^Dd2 was used[22] (Supplementary Fig. 16). The resulting DNA fragment was cloned into the SP64T expression vector and verified by sequencing.
(§2) Oocytes were obtained as described previously. Briefly, adult (>2 years old) female X. laevis frogs (NASCO) were anesthetized in a cooled solution of ethyl 3-amino benzoate methanesulfonate (0.1%, w/v), followed by a surgical removal of parts of the ovary. The ovary lobes were carefully dissected and small pieces of oocytes were incubated in Ca^2+-free ND96 buffer (96 mM NaCl, 2 mM KCl, 1 mM MgCl2 buffered with 5 mM HEPES/NaOH, pH 7.5) supplemented with collagenase D (0.1%, w/v; Roche), BSA (0.5%, w/v), and 9 mm Na2HPO4 at 18 °C for 14-16 h while gentle shaking. After incubation, the oocytes were carefully washed several times with ND96 buffer (96 mM NaCl, 2 mM KCl, 1.8 mM CaCl2, 1 mM MgCl2 buffered with 5 mM HEPES/NaOH, pH 7.5) supplemented with 100 mg l^−1 gentamycin). Defolliculated and healthy-looking stage V-VI oocytes were manually selected for RNA microinjection. The RNA was generated as following: The codon-optimized sequences of PfCRT variants were cloned into the pSP64T expression vector. After vector linearization using the restriction endonucleases BamHI or SalI (New England Biolabs), transcription was performed using the in vitro SP6 mMessage mMachine Kit (Ambion)[34]. The obtained RNA was kept at −80 °C and diluted with nuclease-free water to a concentration of 0.6 μg μl^−1. Precision-bore glass capillary tubes (3.5-inch glass capillaries; Drummond Scientific Co.) were pulled on a vertical puller (P-87 Flaming/Brown micropipette puller, Sutter Instrument Co.), graduated, and placed on a microinjector (Nanoject II Auto-Nanoliter Injector, Drummond Scientific Co.). 50 nl of nuclease-free water alone (control oocytes) or 50 nl of 0.6 μg μl^−1 RNA were injected under stereomicroscopic control. Injected oocytes were incubated for 46–72 h at 18 °C with twice-daily buffer changes before usage in experiments.
(§3) Drug uptake assays were performed as described previously[21],[22],[24],[34]. […] The direction of radio-labeled drug transport is here from the mostly acidic extracellular solution (pH 4.5 or 6.0, as indicated) into the oocyte cytosol (pH ∼ 7.2), which corresponds to the efflux of drug from the acidic digestive vacuole (pH 5.2) into the parasite cytoplasm (pH 7.2). The topology of PfCRT in the oolemma is such that both the N- and C-terminus face the extracellular milieu[3],[22]. In the parasite, the N- and C-terminus face the lumen of the digestive vacuole. CQ uptake kinetics were performed by incubating oocytes in ND96 buffer adjusted to a pH of 4.5, 5.0, 5.5, or 6.0 and supplemented with 50 nM [^3H]CQ and one of 7 different CQ concentrations (10 µM, 50 µM, 100 µM, 200 µM, 300 µM, 400 µM, 500 µM CQ). The reaction was stopped at the 60 min time point, which is in the linear uptake range[22],[34] (Supplementary Fig. 17). For determination of the amount of drug uptake for each oocyte, the reaction medium was removed and the oocytes were washed three times with 2 ml of ice-cold ND96 buffer. Each oocyte was individually transferred to a scintillation vial containing 5% sodium dodecyl sulfate (200 μl) for lysis. The radioactivity of each sample was measured using a liquid scintillation analyzer Tri-Carb 4910 TR (PerkinElmer). Oocytes that were injected with water instead of RNA were analyzed in parallel, representing the uptake of a drug by diffusion and/or endogenous permeation pathways. The resulting value represents the “background“ level of drug accumulation in oocytes (in-depth discussion in[22]). […]

PfCRT variant E207P = test: CQ uptake assay, oocytes expressing E207P; type: cell-based, Plasmodium falciparum
Experimental: as §1, §2, §3

[1] = F287A, 50 µM CQ, 1 h, mean ± SEM
[2] = E207P, 50 µM CQ, 1 h, mean ± SEM

CCN(CC)CCCC(C)Nc1ccnc2cc(Cl)ccc12 (stereo not drawn) [CQ, chloroquine]
Activity at pH 4.5 (PfCRT variant F287A; [1]): 1.50 ± 0.05 pmol h-1 oocyte-1 | Activity at pH 6.0 (PfCRT variant F287A; [1]): 4.71 ± 0.24 pmol h-1 oocyte-1 | R-value (PfCRT variant F287A; F287A, CQ transport at pH 4.5 / pH 6.0): 0.32 ± 0.02 | F287A transport activity pH 4.5 (PfCRT variant F287A; pH 4.5, single replicates, Fig 1d left): 1.56 pmol oocyte-1 h-1 and 1.62 pmol oocyte-1 h-1 and 1.49 pmol oocyte-1 h-1 and 1.34 pmol oocyte-1 h-1 | F287 R-value (PfCRT variant F287A; pH 4.5 vs pH 6.0, Fig 1d left): 0.32 and 0.33 and 0.38 and 0.26 | F287A transport activity pH 6.0 (PfCRT variant F287A; pH 6.0, single replicates, Fig 1d left): 4.84 pmol oocyte-1 h-1 and 4.98 pmol oocyte-1 h-1 and 3.89 pmol oocyte-1 h-1 and 5.12 pmol oocyte-1 h-1 | Activity at pH 4.5 (PfCRT variant E207P; [2]): 2.31 ± 0.3 pmol h-1 oocyte-1 | Activity at pH 6.0 (PfCRT variant E207P; [2]): 2.45 ± 0.21 pmol h-1 oocyte-1 | R-value (PfCRT variant E207P; E207P, CQ transport at pH 4.5 / pH 6.0): 0.93 ± 0.05 | E207P transport activity pH 4.5 (PfCRT variant E207P; pH 4.5, individual replicates, Fig 6b): 2.94 pmol oocyte-1 h-1 and 1.66 pmol oocyte-1 h-1 and 2.34 pmol oocyte-1 h-1 | E207P transport activity pH 6.0 (PfCRT variant E207P; pH 6.0, individual replicates, Fig 6b): 2.94 pmol oocyte-1 h-1 and 2.08 pmol oocyte-1 h-1 and 2.34 pmol oocyte-1 h-1 | E207PR-value (PfCRT variant E207P; ratio of activity pH 4.5 / pH 6.0): 1.00 and 0.80
